21 molecules from ChEMBL document CHEMBL1141079, “Cytostatic 6-arylpurine nucleosides. 6. SAR in anti-HCV and cytostatic activity of extended series of 6-hetarylpurine ribonucleosides” (J Med Chem, 2005) can be followed below.

The test system of one experiment is Hepatitis C virus. The experiment is described as follows: Effective concentration required to reduce Hepatitis C virus. The experiment is classed as functional, Hepacivirus hominis.
For experiment [1], the system named is HL-60. Nature of the experiment: In vitro inhibitory concentration against human promyelocytic leukemia HL60 cell line. The experiment is classed as functional, cell-based.
The species entered for another experiment is Homo sapiens. Nature of the experiment: Cytotoxic concentration required to reduce the cellular rRNA level in hepatitis C virus replicon cells.
For experiment [2], the system named is L1210. The experiment is described as follows: In vitro inhibitory concentration against mouse leukemia L1210 cell line. The experiment is classed as functional, cell-based.
Another experiment concerns CCRF-CEM. Nature of the experiment: In vitro inhibitory concentration against human T lymphoblastoid CCRF-CEM cell line. The experiment is classed as functional, cell-based.
Experiment [3] relates to HeLa. The experiment is described as follows: In vitro inhibitory concentration against human cervix carcinoma HeLaS3 cell line. The experiment is classed as functional, cell-based.
In experiment [4] the test system is HeLa. The experiment is described as follows: In vitro inhibitory concentration against human cervix carcinoma HeLaS3 cell line; n.a. is not active. The experiment is classed as functional, cell-based.
Experiment [5] deals with L1210. The experiment is described as follows: In vitro inhibitory concentration against mouse leukemia L1210 cell line; n.a. is not active. The experiment is classed as functional, cell-based.
The test system of experiment [6] is HL-60. The experiment is described as follows: In vitro inhibitory concentration against human promyelocytic leukemia HL60 cell line; n.a. is not active. The experiment is classed as functional, cell-based.
The mark [7] stands for this setting: Homo sapiens, CCRF-CEM, read-out: IC50.

Take `OC[C@H]1O[C@@H](n2cnc3c(-c4ccccc4)ncnc32)[C@H](O)[C@@H]1O`: it took 16.7 µM to reach the 90% level in the experiment with Hepatitis C virus (EC90). Besides, in the experiment with HL-60 [1], the IC50 was 6.3 µM. Further, in the experiment listed under Homo sapiens, it took 8.3 µM to reach half-maximal cytotoxicity (CC50).
Turning to `OC[C@H]1O[C@@H](n2cnc3c(-c4cccs4)ncnc32)[C@H](O)[C@@H]1O`, the IC50 with L1210 [2] worked out at 0.37 µM; in the experiment with CCRF-CEM (setting [7]) it was 0.6 µM; in the experiment with HL-60 [1], 4.9 µM; with HeLa [3], 25 µM. In the experiment with Hepatitis C virus, this molecule registered an EC90 of 0.7 µM. This molecule also had a CC50 in the experiment listed under Homo sapiens of 1.1 µM.
The molecule `COc1ccc(-c2ncnc3c2ncn3C2O[C@H](CO)[C@@H](O)[C@H]2O)cc1` (stereo partly drawn) came in with an EC90 with Hepatitis C virus of more than 100 µM. In addition, in the experiment with HL-60 [1], half-maximal inhibition (IC50) was put at 7.6 µM. The CC50 in the experiment filed under Homo sapiens was less than 10 µM.
For `OC[C@H]1OC(n2cnc3c(-c4ccco4)ncnc32)[C@H](O)[C@@H]1O` (stereo partly drawn), the IC50 with L1210 [2] came to 2 µM; in the experiment on CCRF-CEM (setting [7]) it was 0.6 µM; in the experiment with HL-60 [1] it was 2.7 µM; in the experiment with HeLa [3] it was 25 µM. The same molecule yielded a 90% effect concentration (EC90) with Hepatitis C virus of 0.4 µM. This molecule also registered a CC50 in the experiment listed under Homo sapiens of 1.6 µM.
Turning to `OC[C@H]1OC(n2cnc3c(-c4ccc(O)cc4)ncnc32)[C@H](O)[C@@H]1O` (stereo partly drawn), the half-inhibitory concentration (IC50) was 5 µM with L1210 [2], 1.25 µM with CCRF-CEM (setting [7]), 7.6 µM in the experiment with HL-60 [1] and 32.5 µM in the experiment on HeLa [3]. This molecule also displayed an EC90 in the experiment on Hepatitis C virus of 2.6 µM. In the experiment listed under Homo sapiens, this molecule registered a CC50 of 5.2 µM.
With `OC[C@H]1OC(n2cnc3c(-c4cc[nH]c4)ncnc32)[C@H](O)[C@@H]1O` (stereo partly drawn), the IC50 was 17.5 µM in the experiment on L1210 [2], 1.03 µM in the experiment on CCRF-CEM (setting [7]), 3.2 µM in the experiment with HL-60 [1] and “Not Active” in the experiment with HeLa [4]. In addition, the EC90 in the experiment on Hepatitis C virus worked out at 0.14 µM. Besides, in the experiment filed under Homo sapiens, the CC50 was less than 0.1 µM.
`OC[C@H]1OC(n2cnc3c(-c4cc[nH]n4)ncnc32)[C@H](O)[C@@H]1O` (stereo partly drawn): the IC50 is 19.8 µM in the experiment on L1210 [2], 0.75 µM in the experiment on CCRF-CEM (setting [7]), 1.17 µM with HL-60 [1] and “Not Active” in the experiment with HeLa [4]. Also, the EC90 with Hepatitis C virus is 0.8 µM. In addition, in the experiment filed under Homo sapiens, the midpoint of cytotoxicity, the CC50, lay at 0.6 µM.
Consider `Cc1cc(-c2ncnc3c2ncn3C2O[C@H](CO)[C@@H](O)[C@H]2O)on1` (stereo partly drawn), for which the IC50 entry in the experiment on CCRF-CEM (ccrf-cem), in the experiment on L1210 [5], with HL-60 [6] and with HeLa [4] was “Not Active” throughout. The same molecule displayed an EC90 in the experiment on Hepatitis C virus of more than 100 µM. For the same molecule, the CC50 in the experiment listed under Homo sapiens is more than 100 µM.
Turning to `Cn1nccc1-c1ncnc2c1ncn2C1O[C@H](CO)[C@@H](O)[C@H]1O` (stereo partly drawn), the IC50 result with CCRF-CEM (ccrf-cem), in the experiment on L1210 [5], with HL-60 [6] and with HeLa [4] was “Not Active” in each case. The same molecule came in with a 90% effect concentration (EC90) in the experiment on Hepatitis C virus of more than 100 µM. The same molecule returned a CC50 in the experiment listed under Homo sapiens of more than 100 µM.
For `Cc1csc(-c2ncnc3c2ncn3C2O[C@H](CO)[C@@H](O)[C@H]2O)n1` (stereo partly drawn), the 50% inhibitory concentration (IC50) with CCRF-CEM (setting [7]) is 6 µM; in the experiment with L1210 [5] it was “Not Active”; with HL-60 [6] it was “Not Active”; in the experiment with HeLa [4], “Not Active”. The molecule also gave an EC90 in the experiment with Hepatitis C virus of more than 100 µM. Further, the CC50 in the experiment listed under Homo sapiens is more than 100 µM.
In the case of `OC[C@H]1OC(n2cnc3c(-c4cc5ccccc5o4)ncnc32)[C@H](O)[C@@H]1O` (stereo partly drawn), the IC50 in the experiment on CCRF-CEM (setting [7]) was 15 µM; in the experiment with L1210 [5], “Not Active”; with HL-60 [6], “Not Active”; with HeLa [4], “Not Active”. The molecule also came in with an EC90 in the experiment on Hepatitis C virus of more than 100 µM. The CC50 in the experiment filed under Homo sapiens was more than 100 µM.
In the case of `OC[C@H]1OC(n2cnc3c(-c4nccs4)ncnc32)[C@H](O)[C@@H]1O` (stereo partly drawn), the IC50 was 16 µM in the experiment with L1210 [2], 2.73 µM in the experiment on CCRF-CEM (setting [7]), 6.3 µM with HL-60 [1] and “Not Active” in the experiment with HeLa [4]. This molecule also yielded an EC90 in the experiment with Hepatitis C virus of 6 µM. Also, the midpoint of cytotoxicity in the experiment filed under Homo sapiens, the CC50, lay at 6.7 µM.
`Cc1csc(-c2ncnc3c2ncn3C2O[C@H](CO)[C@@H](O)[C@H]2O)c1` (stereo partly drawn): the IC50 in the experiment with CCRF-CEM (setting [7]) was 2.9 µM; in the experiment on HL-60 [1], 5.6 µM; in the experiment with L1210 [5] it was “Not Active”; in the experiment with HeLa [3] it was 11.4 µM. Besides, in the experiment with Hepatitis C virus, the EC90 worked out at 40.7 µM. For the same molecule, in the experiment filed under Homo sapiens, half-maximal cytotoxicity (CC50) was put at 7 µM.
For `OC[C@H]1OC(n2cnc3c(-c4ccc(F)cc4)ncnc32)[C@H](O)[C@@H]1O` (stereo partly drawn), the IC50 with CCRF-CEM (setting [7]) is 0.7 µM; with HL-60 [1], 6.3 µM; in the experiment with HeLa [3] it was 2.7 µM. In addition, it took 49.5 µM to reach the 90% level in the experiment on Hepatitis C virus (EC90). This molecule displayed a CC50 in the experiment listed under Homo sapiens of 9.2 µM.
`Cc1ccsc1-c1ncnc2c1ncn2C1O[C@H](CO)[C@@H](O)[C@H]1O` (stereo partly drawn): the IC50 with CCRF-CEM (setting [7]) was 2.5 µM; in the experiment with HL-60 [1] it was 4.5 µM; in the experiment with L1210 [5], “Not Active”; in the experiment with HeLa [3], more than 20 µM. The EC90 with Hepatitis C virus is more than 100 µM. Moreover, the CC50 in the experiment filed under Homo sapiens was more than 100 µM.
For the molecule `Cn1cccc1-c1ncnc2c1ncn2C1O[C@H](CO)[C@@H](O)[C@H]1O` (stereo partly drawn), the IC50 in the experiment on CCRF-CEM (setting [7]) is 2 µM; in the experiment on HL-60 [1], 15.7 µM; with L1210 [5], “Not Active”; in the experiment on HeLa [4] it was “Not Active”. For the same molecule, in the experiment on Hepatitis C virus, the EC90 is more than 100 µM. Also, the CC50 in the experiment filed under Homo sapiens was more than 100 µM.
Turning to `OC[C@H]1OC(n2cnc3c(-c4ccccn4)ncnc32)[C@H](O)[C@@H]1O` (stereo partly drawn), the IC50 in the experiment on L1210 [2] was 4.3 µM; in the experiment with CCRF-CEM (setting [7]), 0.9 µM; in the experiment on HL-60 [1] it was 5.6 µM; in the experiment on HeLa [3], 9.7 µM. The molecule also came in with an EC90 with Hepatitis C virus of 6 µM. In the experiment listed under Homo sapiens, the CC50 was found to be 2.7 µM.
On to `OC[C@H]1OC(n2cnc3c(-c4ccsc4)ncnc32)[C@H](O)[C@@H]1O` (stereo partly drawn), for which the IC50 with L1210 [2] is 10.8 µM; in the experiment on CCRF-CEM (setting [7]) it was 1.64 µM; with HL-60 [1] it was 3.8 µM; with HeLa [4] it was “Not Active”. The molecule further returned a concentration for an effect of 90% (EC90) in the experiment with Hepatitis C virus of 0.82 µM. This molecule gave a CC50 in the experiment listed under Homo sapiens of less than 0.1 µM.
As to `OC[C@H]1OC(n2cnc3c(-c4ccoc4)ncnc32)[C@H](O)[C@@H]1O` (stereo partly drawn), the IC50 is 1.65 µM in the experiment with CCRF-CEM (setting [7]), 3.3 µM with HL-60 [1], “Not Active” in the experiment with L1210 [5] and “Not Active” in the experiment on HeLa [4]. In addition, it took 1.4 µM to reach the 90% level in the experiment on Hepatitis C virus (EC90). In the experiment listed under Homo sapiens, it took 6.9 µM to reach half-maximal cytotoxicity (CC50).
Consider `OC[C@H]1OC(n2cnc3c(-c4ccc(Cl)cc4)ncnc32)[C@H](O)[C@@H]1O` (stereo partly drawn), for which the EC90 in the experiment on Hepatitis C virus is more than 100 µM. In addition, in the experiment filed under Homo sapiens, the CC50 is more than 100 µM. In addition, the IC50 entry with L1210 [5] and in the experiment on HL-60 [6] was “Not Active” in each case.
`C[C@@]1(O)[C@H](O)[C@@H](CO)O[C@H]1n1cnc2c(N)ncnc21` showed an EC90 in the experiment on Hepatitis C virus of 1.14 µM. Besides, the CC50 in the experiment listed under Homo sapiens is 15 µM.
